Data published in patent publication US20110088107A1, “COMPOSITIONS AND METHODS FOR DERIVING OR CULTURING PLURIPOTENT CELLS” (priority 2009, published 2011).

What was measured:
129 EpiSCs = assay: Conversion of EpiSCs into ICM-like iPS cells; type: cell-based, mouse; conditions: medium (mESM) supplemented, no transgene
From the text: FIGS. 24(A)-24(B) show small molecule conversion of distinct pluripotent states. ([…] derived from the epiblast of day E5.5 mouse embryos or NOD […] ES cells and were reprogrammed into ICM-like after culture in the mESM+KP/CH. While most colonies differentiated due to withdrawal of bFGF and change of medium (indicated by asterisks), ES-like colonies could be observed after 7-9 days and passaged via trypsinization. Within 2 passages ICM-like ES lines could be stably generated. (B) However, NOD […] which was derived from NOD-ES #43 by withdrawing KP/CH and growing the cells in […] conditions for over 8 passages (FIG. 6F), remained dependent on KP/CH molecules. Factors and growth conditions utilized to facilitate the identity conversion at each step are indicated in parenthesis. The pluripotency state was evaluated and defined based on Oct4 enhancer activity, inhibitor sensitivity (indicated in red or blue accordingly for each line). Identical results were obtained by using PD/CH inhibitor combination or KP alone (data not shown). Work described here further analyzed whether the exogenous stimuli defined in this study could interconvert the two distinct pluripotent states. This work first tested whether infection of previously characterized E5.5 derived 129 […] et al., 2007) with a Klf4 or c-Myc Dox inducible vectors could convert the EpiSCs to an ICM-like pluripotent state. […]

NOD ES cells = assay: Blastocyst injection (2N) and chimera generation from NOD ES lines; type: in vivo, mouse; conditions: NOD ES line derived and propagated with the inhibitors; 2N injections
Procedure: Diploid B6D2F2 blastocysts (94-98 h after hCG injection) were placed in a drop of M2 medium under mineral oil. A flat-tip microinjection pipette with an internal diameter of 16 μm was used for cell injection using a Piezo micromanipulator (Primetech, Japan). About 10 cells were injected into the blastoceol cavity. After injection, the embryos were cultured in KSOM medium and placed in a 37° C. humidified CO2 chamber until transferred to recipient females. Ten to fifteen injected blastocysts were transferred to each uterine horn of 2.5 days post coitum pseudo-pregnant B6D2F1 females. For teratoma generation, 2*106 cells were injected subcutaneously into both flanks of recipient SCID mice, and tumors were harvested for sectioning 3-6 weeks after initial injection. […] were collagenased and manually dissociated into small pieces and injected subcutaneously in to immuno deficient mice.

NOD-iPS cells = assay: Dox-independent propagation of Dox-dependent NOD-iPS cells in supplemented mESM; type: cell-based, mouse (NOD); conditions: mESM lacking Dox
From the text: FIGS. 4(A)-4(H) illustrate generation of genetically unmodified germline competent NOD ES cells. (A) Experimental outline for derivation of iPS lines that grow in the presence of small molecules and in the absence of Dox. Representative images of NOD iPS lines growing in mESM supplemented with the indicated small molecules or growth factors. (B) Single-cell cloning efficiency of NOD iPS cells in different growth conditions. WT or NOD-iPS cells grown in mESM and KP were sorted in 96 well plates and cultured in mESM supplemented with small molecules. The number of wells containing Nanog+ colonies was counted after 6 days. Efficiencies were normalized to that of C57B6/129F1-iPS cells (“permissive” controls) plated in mESM and defined as 100%. SD for average efficiencies from 2 experiments are shown. Student test P value compares KP/CH to PD/CH mESM conditions for NOD iPS cells. (C) Expansion of day E3.5 ICM derived NOD ES cells in the presence of KP, KP/CH or PD/CH and derivation of stable ES lines. Images of initial colonies observed at passage 2 after embryo dissociation are shown together with representative images at later passages. (D) Karyotype of NOD ES lines. (E) Immunostaining of NOD ES lines for pluripotency markers. Inhibitors used during cell line derivation and propagation are indicated. (F) Chimerism in adult mice generated from the indicated cell lines is evident by the presence of agouti (brown) and albino coat color originating from the NOD background. […] (G) Real-Time PCR analysis for endogenous expressed Oct4, c-Myc and Klf4 genes in NOD iPS and ES cells grown in the indicated conditions. Relative expression levels are normalized to levels detected in control 129 ES cells. (H) Southern analysis indicating correct targeting of the endogenous Nanog locus in NOD ES cells with Nanog-GFP knock-in targeting construct.
Small molecules have been identified to replace some of the reprogramming factors in iPS derivation (Huangfu et al., 2008; Shi et al., 2008). […]

[1] = test system: secondary transgenic MEF line (OSM); conditions: Lyssiotis et al., 2009; cited from earlier work

## O=C1Cc2c([nH]c3ccc(Br)cc23)-c2ccccc2N1 [Kenpaullone, 9-bromo-7,12-dihydroindolo[3,2-d][1]benzazepin-6(5H)-one]
129 EpiSCs
  conversion of EpiSCs into iPS cells (ICM-like pluripotency): conversion can be accomplished
NOD ES cells
  % Chimerism (coat color): 40-90%
  Born chimeras: 17
  Germline Transmission: yes
NOD-iPS cells
  Dox-independent growth of pluripotent NOD-iPS cells: supported Dox-independent growth
[1]
  replacement of Klf4 during iPS reprogramming: replaces Klf4 during iPS reprogramming
